# Numbers after ± are expanded uncertainties.
# Test: xn = mol fraction of the nth substance listed
# Conditions: Liquid; for mass density: Bellows volumetry; for Critical density: bellows voluometer
structure (smiles),measurement,setting,value
N [ammonia] + O,mass density,"436.56 K, 14191 kPa, x1 = 0.9098",263.5 ± 0.5 kg/m3
same,mass density,"436.56 K, 14208 kPa, x1 = 0.9098",264.8 ± 0.5 kg/m3
same,mass density,"436.56 K, 14217 kPa, x1 = 0.9098",265.4 ± 0.5 kg/m3
same,mass density,"436.56 K, 14225 kPa, x1 = 0.9098",265.9 ± 0.5 kg/m3
same,mass density,"478.58 K, 17311 kPa, x1 = 0.7757",284.3 ± 0.5 kg/m3
same,mass density,"478.58 K, 17320 kPa, x1 = 0.7757",284.7 ± 0.5 kg/m3
same,mass density,"478.58 K, 17329 kPa, x1 = 0.7757",285.1 ± 0.5 kg/m3
same,mass density,"478.58 K, 17347 kPa, x1 = 0.7757",285.8 ± 0.4 kg/m3
same,mass density,"503.06 K, 18697 kPa, x1 = 0.6808",294.8 ± 0.5 kg/m3
same,mass density,"503.06 K, 18706 kPa, x1 = 0.6808",295.2 ± 0.5 kg/m3
same,mass density,"503.06 K, 18715 kPa, x1 = 0.6808",295.6 ± 0.5 kg/m3
same,mass density,"503.06 K, 18724 kPa, x1 = 0.6808",296 ± 0.5 kg/m3
same,mass density,"503.06 K, 18733 kPa, x1 = 0.6808",296.3 ± 0.5 kg/m3
same,mass density,"503.06 K, 18743 kPa, x1 = 0.6808",296.6 ± 0.5 kg/m3
same,mass density,"503.06 K, 18751 kPa, x1 = 0.6808",297 ± 0.5 kg/m3
same,Critical density,x1 = 0.6808,294.6 ± 1 kg/m3
same,Critical density,x1 = 0.7757,284 ± 1.2 kg/m3
same,Critical density,x1 = 0.9098,262.9 ± 1.8 kg/m3

# From the NIST ThermoML archive (doi:10.1016/j.jct.2008.05.017)
